The source of these data is PubChem BioAssay (NCI).

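Values below derive from 48-hour exposures of cells grown in 96-well plates, with endpoints linearly interpolated between the two concentrations bracketing the appropriate inhibition level. Definition used: TGI = concentration required for complete inhibition of growth.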

Test systems include A549 NSCLC; HCT-116 colon; HOP-62 NSCLC; K-562 leukemia; NCI/ADR-RES ovarian; OVCAR-3 ovarian; OVCAR-4 ovarian; RPMI-8226 leukemia; SF-268 CNS; SF-295 CNS; SK-MEL-5 melanoma; SNB-19 CNS; SR leukemia; DMS 273 small cell lung; SK-MEL-2 melanoma; SNB-78 CNS.
What all share (experiment): NCI anticancer screen, dose series, 48 h

As to `O=C1OC(c2ccccc2)=NC1c1ccccc1` (stereo unspecified), the TGI with A549 NSCLC, in the assay with HCT-116 colon, in the assay with HOP-62 NSCLC, in the assay on K-562 leukemia, with NCI/ADR-RES ovarian and in the assay with OVCAR-3 ovarian was over 100 µM each time. In addition, the TGI in the assay with OVCAR-4 ovarian, in the assay with RPMI-8226 leukemia, in the assay with SF-268 CNS, in the assay on SF-295 CNS, with SK-MEL-5 melanoma and with SNB-19 CNS was over 100 µM in each case. For the same compound, the TGI in the assay with SR leukemia was over 100 µM.
In the case of `OCC#CCNCl`, the TGI with A549 NSCLC, in the assay with DMS 273 small cell lung, with HCT-116 colon, in the assay on HOP-62 NSCLC, in the assay on K-562 leukemia and with NCI/ADR-RES ovarian was over 100 µM in each case. In addition, the TGI in the assay with OVCAR-3 ovarian, in the assay with OVCAR-4 ovarian, with RPMI-8226 leukemia, with SF-268 CNS, in the assay with SF-295 CNS and in the assay with SK-MEL-2 melanoma was over 100 µM each time. In addition, the TGI with SK-MEL-5 melanoma, in the assay with SNB-19 CNS and in the assay with SNB-78 CNS was over 100 µM each time.
As for `FC(F)(F)c1ccc2c(c1)N(CCCNCCN1CCOCC1)c1ccccc1S2`, the TGI with A549 NSCLC stood at 28.3 µM; with DMS 273 small cell lung, 36.7 µM; with HCT-116 colon, 11.2 µM; in the assay with HOP-62 NSCLC it was 27.1 µM; in the assay with K-562 leukemia it was 10.2 µM; in the assay with OVCAR-3 ovarian, 24.8 µM. For the same compound, the TGI in the assay with RPMI-8226 leukemia is 28.9 µM; in the assay with SF-268 CNS, 37.2 µM; in the assay on SF-295 CNS, 27.4 µM; in the assay on SK-MEL-2 melanoma, 13.9 µM; with SK-MEL-5 melanoma, 13.8 µM; in the assay on SNB-19 CNS it was 30.1 µM. Further, the TGI turned out to be 23.8 µM in the assay on SNB-78 CNS and 21.8 µM in the assay on SR leukemia.
Regarding `O=[N+]([O-])C(=C/c1ccccc1)/C(=C\c1ccccc1)[N+](=O)[O-]`, the TGI in the assay on A549 NSCLC was 78.8 µM; with HCT-116 colon, 31.7 µM; in the assay on HOP-62 NSCLC it was 40 µM; in the assay on K-562 leukemia, over 100 µM; in the assay on NCI/ADR-RES ovarian, 42.8 µM; with OVCAR-3 ovarian, 45.3 µM. Also, the TGI in the assay on OVCAR-4 ovarian was 38.1 µM; in the assay with RPMI-8226 leukemia, 48.4 µM; in the assay on SF-268 CNS it was 50 µM; in the assay with SF-295 CNS, 36.2 µM; with SK-MEL-2 melanoma, 49.1 µM; in the assay on SK-MEL-5 melanoma, 30.2 µM. The compound further returned a TGI with SNB-19 CNS of 33.4 µM.
As to `C/C(=C/C(=O)Nc1ccccc1)Nc1onc(C)c1C`, the TGI with A549 NSCLC, in the assay with DMS 273 small cell lung, with HCT-116 colon, in the assay on HOP-62 NSCLC, with K-562 leukemia and in the assay with NCI/ADR-RES ovarian was over 100 µM throughout. In addition, the TGI in the assay on OVCAR-3 ovarian, in the assay on OVCAR-4 ovarian, in the assay with RPMI-8226 leukemia, with SF-268 CNS, in the assay with SF-295 CNS and in the assay on SK-MEL-2 melanoma was over 100 µM in each case. The TGI in the assay with SK-MEL-5 melanoma, in the assay on SNB-19 CNS and in the assay on SNB-78 CNS was over 100 µM each time.
On to `OCC1O[C@H](O[C@@H]2CCCN3CC(O)C(O)[C@@H]23)C(O)C(O)C1O` (stereo partly specified), for which the TGI in the assay on A549 NSCLC, in the assay on DMS 273 small cell lung, in the assay on HCT-116 colon, with HOP-62 NSCLC, with K-562 leukemia and in the assay with OVCAR-3 ovarian was over 100 µM in each case. Moreover, the TGI with OVCAR-4 ovarian, with SF-268 CNS, in the assay on SF-295 CNS, in the assay with SK-MEL-2 melanoma, with SK-MEL-5 melanoma and in the assay with SNB-78 CNS was over 100 µM in each case. The compound also showed a TGI with SR leukemia of over 100 µM.
In the case of `Cc1ccc(/C=C2\Sc3scc(-c4ccccc4)[n+]3C2=O)cc1`, the TGI is over 84.3 µM in the assay with A549 NSCLC; over 52.1 µM in the assay on HCT-116 colon; over 100 µM in the assay on HOP-62 NSCLC; 31.5 µM with K-562 leukemia; over 58 µM in the assay on NCI/ADR-RES ovarian; over 100 µM in the assay with OVCAR-3 ovarian. Further, the TGI is over 81.1 µM with OVCAR-4 ovarian; 35.4 µM in the assay with RPMI-8226 leukemia; 45.5 µM with SF-268 CNS; over 70.3 µM in the assay on SF-295 CNS; over 89.1 µM with SK-MEL-2 melanoma; over 58.2 µM in the assay on SK-MEL-5 melanoma. Moreover, the TGI was over 72 µM in the assay on SNB-19 CNS and 26.4 µM with SR leukemia.
As to `Nc1nc(Nc2ccc(Cl)c(Cl)c2)nc2nc[nH]c12`, the TGI with A549 NSCLC was determined as 33.6 µM; with HCT-116 colon, 34.1 µM; with HOP-62 NSCLC, 26.1 µM; in the assay on K-562 leukemia, 47.4 µM; in the assay on NCI/ADR-RES ovarian it was 38.3 µM; in the assay with OVCAR-3 ovarian, 27 µM. The TGI with OVCAR-4 ovarian was determined as 48.4 µM; with RPMI-8226 leukemia, 62.8 µM; in the assay on SF-268 CNS it was 22.9 µM; with SF-295 CNS it was 35.7 µM; in the assay on SK-MEL-2 melanoma it was 39.2 µM; in the assay with SK-MEL-5 melanoma, 27.7 µM. Moreover, the TGI with SNB-19 CNS came out at 32 µM; in the assay with SR leukemia, 33.2 µM.
